Consider two compounds from article PMC9944328 (Nature Communications, 2023).

In the assay the test system is SSTR2 mutants. As to the kind of experiment: SSTR2 internalization by ELISA, HEK293, 30 min 37 °C (mutants). Format: cell-based, human. Particulars: I284ECL3A, K291A, N276A, F294A, Bystander BRET or confocal. Here is the method: HEK293 cells were seeded into 96-well microplates at a density of 4 × 10^4 cells/well and cultured for 24 h at 37 °C with 5% CO2 and were transfected using the same procedure as the cAMP accumulation assay. The plates were washed with washing buffer (PBS) the day after transfection, and were fixed with 4% formalin at room temperature for 30 min. Cells were washed with washing buffer and blocked with PBS supplemented with 5% BSA for 1 h at room temperature. After that, cells were incubated with anti-Flag antibody (1:1000 diluted with PBS containing 5% BSA, Proteintech: 66008-4-Ig) for 1 h at room temperature. After 1 h incubation, cells were washed with washing buffer and incubating with HRP-conjugated secondary antibody for 2 h at room temperature. After incubating and washing, 50 μl of chromogenic solution was added to each well, and reacted at room temperature for 10 min, and then 0.5 M HCl were added to stop the reaction.
All data presented are means at least three independent experiments.
(ELISA stands for enzyme-linked immunosorbent assay.)

Consider `C[C@@H](O)[C@@H]1NC(=O)[C@H](CCCCN)NC(=O)[C@@H](Cc2c[nH]c3ccccc23)NC(=O)[C@H](Cc2ccccc2)NC(=O)[C@@H](NC(=O)[C@H](N)Cc2ccccc2)CSSC[C@@H](C(=O)N[C@H](CO)[C@@H](C)O)NC1=O` [octreotide], for which the Internalization of mutants result was “diminished internalization”.

`N#Cc1cccc(-c2ccc3ncc(-c4cc(F)cc(F)c4)c(N4CCC(N)CC4)c3c2)c1O` [paltusotine]: the Internalization of mutants result is on record as “slightly change in the internalization”.
